From US6890933B1, “Kinesin inhibitors” (President and Fellows of Harvard College, priority 2000, dated 2005)
Entries after “also recorded” stand apart in the source; their conditions may differ. Read-outs that look alike come from different tables or passages of the source.

How the values were obtained:
full length Xenopus Eg5 = target: T1, full length Xenopus Eg5 (Xenopus laevis, UniProt P28025); assay: Microtubule motility driven by full length Xenopus Eg5, with washout; assay type: biochemical; settings: full length Xenopus Eg5, washout experiment
T1 construct: Full length Xenopus Eg5 was expressed in baculovirus according to standard protocols; made in house
T1 sequence (P28025 1-1067): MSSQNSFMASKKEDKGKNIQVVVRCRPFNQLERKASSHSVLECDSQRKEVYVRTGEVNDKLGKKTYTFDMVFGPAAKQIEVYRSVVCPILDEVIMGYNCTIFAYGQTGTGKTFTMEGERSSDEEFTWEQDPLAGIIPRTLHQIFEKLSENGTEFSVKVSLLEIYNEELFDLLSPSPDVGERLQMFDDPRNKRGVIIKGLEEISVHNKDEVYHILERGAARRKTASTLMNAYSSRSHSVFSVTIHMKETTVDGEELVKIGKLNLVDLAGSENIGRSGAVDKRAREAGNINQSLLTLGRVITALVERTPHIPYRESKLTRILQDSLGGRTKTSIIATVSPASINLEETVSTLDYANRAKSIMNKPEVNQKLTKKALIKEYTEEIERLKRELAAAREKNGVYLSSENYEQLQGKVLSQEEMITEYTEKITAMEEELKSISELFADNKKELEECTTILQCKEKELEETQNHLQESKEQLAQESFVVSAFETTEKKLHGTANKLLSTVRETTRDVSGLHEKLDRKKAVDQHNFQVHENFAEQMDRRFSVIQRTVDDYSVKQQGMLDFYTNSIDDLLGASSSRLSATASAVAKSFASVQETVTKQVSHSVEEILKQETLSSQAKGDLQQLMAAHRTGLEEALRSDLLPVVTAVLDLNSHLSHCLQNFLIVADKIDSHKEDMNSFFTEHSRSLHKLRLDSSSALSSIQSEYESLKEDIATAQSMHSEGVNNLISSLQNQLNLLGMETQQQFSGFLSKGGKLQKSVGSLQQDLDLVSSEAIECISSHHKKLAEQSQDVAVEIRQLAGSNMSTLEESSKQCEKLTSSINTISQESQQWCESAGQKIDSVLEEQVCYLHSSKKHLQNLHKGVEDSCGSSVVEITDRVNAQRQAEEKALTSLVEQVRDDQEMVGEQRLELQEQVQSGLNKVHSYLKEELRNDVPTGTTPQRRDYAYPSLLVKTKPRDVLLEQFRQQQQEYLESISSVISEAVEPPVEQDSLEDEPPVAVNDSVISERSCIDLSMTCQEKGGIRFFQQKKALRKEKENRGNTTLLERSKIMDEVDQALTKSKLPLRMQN
Experimental: FIG. 2 depicts the results of experiments examining the motility activity of full length Xenopus Eg5 with and without the beta-carboline, 22C16.
In addition, the ability of 22C16 to inhibit microtubule motility driven by Eg5 was examined. For experimental protocols and details, see Mayer et al. Science 286:971-974, 1999. […] For the washout, Eg5-driven microtubule motility in the presence of 22C16 was measured. The assay chamber was then depleted of 22C16 and motility was immediately measured again. Therefore, the results of the experiment depicted in FIG. 2 provide direct evidence that 22C16 inhibits the microtubule motility driven by Eg5.

[1] = target: T2, conventional human kinesin (Homo sapiens, UniProt P33176); assay: NADH enzyme coupled ATPase assay with conventional human kinesin (K560); assay type: biochemical; settings: N-terminal 560 amino acids, 6-His tag
T2 construct: human kinesin (N-terminal 560 amino acids of full length protein followed by 6-His tag at C terminus); made in house; host or cells: E. coli BL21 pLysS (DE3) (the purification section covers Eg5-405 and K560)
T2 sequence (P33176 1-560): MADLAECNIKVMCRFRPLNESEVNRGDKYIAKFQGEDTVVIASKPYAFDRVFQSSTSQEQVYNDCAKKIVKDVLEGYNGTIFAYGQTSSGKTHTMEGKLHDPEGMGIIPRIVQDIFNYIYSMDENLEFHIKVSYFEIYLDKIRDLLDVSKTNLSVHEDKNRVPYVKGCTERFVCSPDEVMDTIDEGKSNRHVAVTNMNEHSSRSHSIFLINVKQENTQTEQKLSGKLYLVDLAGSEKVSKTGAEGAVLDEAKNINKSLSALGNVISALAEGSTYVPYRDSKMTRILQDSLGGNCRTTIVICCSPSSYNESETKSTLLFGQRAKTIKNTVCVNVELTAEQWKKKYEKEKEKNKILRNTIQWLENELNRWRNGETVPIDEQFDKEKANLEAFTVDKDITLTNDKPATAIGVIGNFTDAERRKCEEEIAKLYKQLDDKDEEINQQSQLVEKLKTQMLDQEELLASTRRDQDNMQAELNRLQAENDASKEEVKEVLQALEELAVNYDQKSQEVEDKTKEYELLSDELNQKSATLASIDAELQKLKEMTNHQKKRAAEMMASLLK
Experimental: Since the effect of 22C16 on mono-astral formation in mammalian cells was similar to that of cells treated with monastrol, the ability of 22C16 to inhibit kinesins was examined.
Purification of Eg5-405 and K560 (560 Amino Acid Kinesin Construct):
(§1) In vitro NADH Enzyme Coupled A TPase: (variation on Methods Described in Crevel, Lockhart, and Cross. J. Mol. Biol. (1997) 273, 160-170.)
(§2) A solution containing the microtubule resuspension buffer was supplemented with 1 mM Mg-ATP, 100 uM nicotinamide adenine dinucleotide (NADH), 1 mM phosphoenol pyruvate, 5 ug/ml pyruvate kinase, 7.5 ug/ml lactate dehydrogenase, 0.7 uM resuspended microtubules, and 0.5% dimethylsulfoxide (DMSO).

BS-C-1 cells = assay: Cell assay for formation of mono-astral spindle structures (immunofluorescence, DAPI / anti-alpha-tubulin); assay type: cell-based, monkey; settings: for IC50: Primates, BSC-1, BS-C-1 cells, direct comparison, unpublished observations of Mayer and Mitchison, read-out: IC50 (median inhibitory concentration), formation of mono-astral structures
Experimental: When the effects of 22C16 and monastrol on microtubule structure were directly compared, it was shown by examining formation of mono-astral structures that 22C16 has an IC50 (median inhibitory concentration) of approximately 2 uM as compared to the IC50 of approximately 20 uM for monastrol (Mayer and Mitchison, unpublished observations). For experimental details on the cell assay to determine mono-astral structures, see Mayer et al. Science 286:971-974, 1999. Images of live BS-C-1 cells were taken as described (Cramer et al. Curr. Opin. Cell. Biol. 67:82, 1994). Briefly, for immunofluorescence, BS-C-1 cells were stained with DAPI (4′,6-diamidino-2-phenylindole; Sigma-Aldrich) to visualize DNA and anti-α-tubulin (DM1 A; Sigma-Aldrich, St. Louis) to visualize spindle structure.

human Eg5 = target: T3, human Eg5 (Homo sapiens, UniProt P52732); assay: In vitro NADH enzyme coupled ATPase assay with purified recombinant human Eg5 (Eg5-405); assay type: biochemical
T3 construct: human Eg5 (N-terminal 405 amino acids and 6-His tagged at C terminus); made in house; host or cells: E. coli BL21 pLysS (DE3), plasmid pRSETa
T3 sequence (P52732 1-405 limits assumed): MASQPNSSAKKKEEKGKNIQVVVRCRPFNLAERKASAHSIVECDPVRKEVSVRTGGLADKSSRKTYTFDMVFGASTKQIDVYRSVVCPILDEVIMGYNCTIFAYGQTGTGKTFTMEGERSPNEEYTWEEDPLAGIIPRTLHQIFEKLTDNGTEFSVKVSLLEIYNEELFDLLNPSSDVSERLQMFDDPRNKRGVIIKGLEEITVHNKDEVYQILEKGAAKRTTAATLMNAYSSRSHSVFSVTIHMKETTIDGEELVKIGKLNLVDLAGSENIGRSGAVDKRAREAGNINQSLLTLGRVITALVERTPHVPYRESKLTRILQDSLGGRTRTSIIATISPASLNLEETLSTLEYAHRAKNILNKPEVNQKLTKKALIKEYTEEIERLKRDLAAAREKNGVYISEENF
Description: FIG. 7 depicts a description of the NADH enzyme coupled ATPase assay used to study the inhibition of the ability of purified human recombinant Eg5 to hydrolyze ATP in the presence and absence of 22C16 and monastrol.
as §1
For a brief description as the ATPase assay used in the present example, see FIG. 7.
as §2
Next, serial dilutions of the compound 22C16 were prepared in the supplemented microtubule resuspension buffer. Purified recombinant human Eg5 protein was added resulting in a final concentration of 50 uM. The subsequent fluorescent reaction was measured in NUNC black walled 384 well plates at 340 nm using a Wallac plate reader.

BSC1 cells = assay type: cell-based, monkey

CCCCN1C(=O)C2Cc3c([nH]c4ccccc34)C(c3cccc(O)c3)N2C1=O (stereo not drawn) [22C16]
inhibition of microtubule motility driven by Eg5 (in words) (full length Xenopus Eg5): acts reversibly to inhibit the motility of Eg5; also recorded: reversibly inhibits microtubule motility
inhibition of ATPase activity of conventional human kinesin (in words) [1]: but not conventional human kinesin
IC50 (BS-C-1 cells): ~2 µM
spindle phenotype in mitotic cells (in words) (BS-C-1 cells; mitotic mammalian (BSC1) cells): caused the formation of monopolar spindles; also recorded: formation of mono-astral spindles; also recorded: capable of arresting cells in mitosis; also recorded: form a mono-astral microtubule array surrounded by a ring of chromosomes
IC50 (human Eg5): 1.1 µM
inhibition of ATPase activity of human Eg5 (in words) (human Eg5; Eg5 N-terminal 405 amino acids, 6-His tagged): block the ATPase activity; also recorded: capable of inhibiting the ATPase activity; also recorded: inhibits the ability of Eg5
potency relative to monastrol in inhibition of ATPase activity of human kinesin Eg5 (human Eg5; ratio of IC50 values): approximately 5 times
effect on Golgi (in words) (BSC1 cells): fragmented the Golgi; also recorded: fragmentation of the Golgi
effect on interphase microtubules (in words) (BSC1 cells): did not depolymerize interphase microtubules; also recorded: without affecting interphase microtubules

CCOC(=O)C1=C(C)NC(=S)NC1c1cccc(O)c1 (stereo not drawn) [monastrol, reference compound]
IC50 (BS-C-1 cells): ~20 µM
IC50 (human Eg5; purified recombinant human Eg5, microtubules, 1 mM Mg-ATP, read-out: IC50, inhibition of Eg5 ATPase activity): 5.3 µM

CCCCN1C(=O)C2Cc3c([nH]c4ccccc34)C(c3cccc(O)c3)N2C1=O (stereo not drawn) [trans isomer of monastroline]
IC50 lower than monastrol (fold), ATPase assay of Example 2 (human Eg5; optically purified trans stereoisomer versus monastrol): approximately 8 times
